Target: T1, Human Cav2.2 channels (Homo sapiens, UniProt Q00975)
T1 construct: expressed in transfected cells
Assay: Fluorescent assay for Cav2.2 channels using potassium depolarization to initiate channel opening
Assay type: cell-based
Details: for inhibition at 10 µM: 10 μM compound, read-out: Cav 2.2 Activity % Inh at 10 μM; for inhibition at 30 µM: 30 μM compound, read-out: Cav 2.2 Activity % Inh at 30 μM; for IC50: 30 mM K (block of open and inactivated channels), read-out: Cav 2.2 Activity IC50 at 30 mM K
From the text: Human Cav2.2 channels were stably expressed in HEK293 cells along with alpha2-delta and beta subunits of voltage-gated calcium channels. An inwardly rectifying potassium channel (Kir2.3) was also expressed in these cells to allow more precise control of the cell membrane potential by extracellular potassium concentration. At low bath potassium concentration, the membrane potential is relatively negative, and is depolarized as the bath potassium concentration is raised. In this way, the bath potassium concentration can be used to regulate the voltage-dependent conformations of the channels. […] After the incubation period, Cav2.2 channel opening is triggered by addition of higher concentration of potassium (70 mM final concentration) to further depolarize the cell. The degree of state-dependent block can be estimated from the inhibitory potency of compounds after incubation in different potassium concentrations.
Calcium influx through Cav2.2 channels is determined using a calcium sensitive fluorescent dye in combination with a fluorescent plate reader. Fluorescent changes were measured with either a VIPR (Aurora Instruments) or FLIPR (Molecular Devices) plate reader.
• 1. Seed cells in Poly-D-Lysine Coated 96 or 384-well plate and keep in a 37° C.-10% CO2 incubator overnight • 2. […] Incubate in the dark at 25° C. for 60-70 min • 5. Remove dye, wash cells with 0.1 mL (96-well plate) or 0.06 mL (384-well plate) of 4, 12, 25, or 30 mM Potassium Pre-polarization Buffer (PPB) • 6. […] Incubate in the dark at 25° C. for 30 min • 8. Read cell plate on VIPR instrument, Excitation=480 nm, Emission=535 nm • 9. With VIPR continuously reading, add 0.1 mL (96-well plate) or 0.03 mL (384-well plate) of Depolarization Buffer (DB), which is 2× the final assay concentration, to the cell plate.

T1 sequence (Q00975 whole entry): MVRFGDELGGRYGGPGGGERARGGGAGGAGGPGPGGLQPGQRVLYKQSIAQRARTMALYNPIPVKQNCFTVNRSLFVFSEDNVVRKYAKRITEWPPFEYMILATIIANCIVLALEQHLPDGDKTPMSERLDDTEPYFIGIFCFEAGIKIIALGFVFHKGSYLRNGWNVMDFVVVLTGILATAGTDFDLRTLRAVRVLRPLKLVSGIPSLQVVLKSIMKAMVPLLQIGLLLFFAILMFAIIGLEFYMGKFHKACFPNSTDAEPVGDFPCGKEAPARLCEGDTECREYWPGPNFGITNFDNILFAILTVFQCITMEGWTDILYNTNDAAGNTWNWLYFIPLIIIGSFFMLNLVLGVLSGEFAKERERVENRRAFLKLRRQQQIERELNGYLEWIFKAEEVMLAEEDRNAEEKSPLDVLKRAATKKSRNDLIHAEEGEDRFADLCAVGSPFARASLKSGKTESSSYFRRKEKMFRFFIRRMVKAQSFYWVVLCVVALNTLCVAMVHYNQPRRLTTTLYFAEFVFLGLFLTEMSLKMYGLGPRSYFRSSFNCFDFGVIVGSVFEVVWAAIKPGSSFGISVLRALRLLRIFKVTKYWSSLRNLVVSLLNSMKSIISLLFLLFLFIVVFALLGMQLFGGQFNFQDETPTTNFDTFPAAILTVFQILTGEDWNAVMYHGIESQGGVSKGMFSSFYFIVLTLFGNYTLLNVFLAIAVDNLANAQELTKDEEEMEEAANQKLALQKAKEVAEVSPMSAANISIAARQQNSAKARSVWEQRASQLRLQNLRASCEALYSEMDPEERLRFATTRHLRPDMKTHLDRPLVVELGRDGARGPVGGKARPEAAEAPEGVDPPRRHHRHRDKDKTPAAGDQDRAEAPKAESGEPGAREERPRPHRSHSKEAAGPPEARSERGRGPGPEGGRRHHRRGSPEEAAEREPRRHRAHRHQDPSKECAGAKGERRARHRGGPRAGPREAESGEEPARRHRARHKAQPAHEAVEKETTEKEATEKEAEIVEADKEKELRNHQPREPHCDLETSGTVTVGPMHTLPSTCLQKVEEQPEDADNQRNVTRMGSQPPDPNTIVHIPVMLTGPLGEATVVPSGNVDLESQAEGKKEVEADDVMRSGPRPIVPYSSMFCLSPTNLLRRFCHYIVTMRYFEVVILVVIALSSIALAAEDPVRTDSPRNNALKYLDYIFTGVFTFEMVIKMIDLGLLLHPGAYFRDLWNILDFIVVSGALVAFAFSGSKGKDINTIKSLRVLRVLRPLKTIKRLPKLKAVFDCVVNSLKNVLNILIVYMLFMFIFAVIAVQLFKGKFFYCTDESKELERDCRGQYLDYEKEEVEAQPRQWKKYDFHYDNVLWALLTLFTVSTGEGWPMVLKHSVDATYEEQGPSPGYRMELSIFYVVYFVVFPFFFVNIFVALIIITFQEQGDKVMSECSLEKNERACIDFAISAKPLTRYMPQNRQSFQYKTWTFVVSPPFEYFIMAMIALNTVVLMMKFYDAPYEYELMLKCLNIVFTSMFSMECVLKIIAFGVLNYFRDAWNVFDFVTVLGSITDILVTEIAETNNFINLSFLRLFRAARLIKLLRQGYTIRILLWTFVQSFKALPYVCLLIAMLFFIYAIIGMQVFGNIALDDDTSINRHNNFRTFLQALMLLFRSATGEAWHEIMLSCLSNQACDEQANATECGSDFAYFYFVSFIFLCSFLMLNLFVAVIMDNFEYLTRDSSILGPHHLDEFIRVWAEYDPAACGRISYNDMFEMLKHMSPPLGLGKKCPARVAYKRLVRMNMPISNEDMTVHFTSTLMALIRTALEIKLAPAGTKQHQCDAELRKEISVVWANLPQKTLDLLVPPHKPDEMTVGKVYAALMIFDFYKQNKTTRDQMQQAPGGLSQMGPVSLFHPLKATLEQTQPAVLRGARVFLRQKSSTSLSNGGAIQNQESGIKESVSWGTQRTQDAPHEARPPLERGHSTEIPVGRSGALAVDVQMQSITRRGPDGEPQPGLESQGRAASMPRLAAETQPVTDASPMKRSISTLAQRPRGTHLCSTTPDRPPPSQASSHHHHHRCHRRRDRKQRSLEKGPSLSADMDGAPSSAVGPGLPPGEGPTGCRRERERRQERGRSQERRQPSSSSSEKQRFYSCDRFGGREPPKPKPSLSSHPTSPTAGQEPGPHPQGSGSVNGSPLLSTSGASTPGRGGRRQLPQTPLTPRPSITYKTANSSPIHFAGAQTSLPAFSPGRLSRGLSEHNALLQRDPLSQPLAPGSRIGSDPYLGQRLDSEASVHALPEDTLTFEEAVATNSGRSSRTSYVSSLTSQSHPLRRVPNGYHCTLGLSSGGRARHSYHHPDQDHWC
T1 sequence (P54289 25-1103 partner): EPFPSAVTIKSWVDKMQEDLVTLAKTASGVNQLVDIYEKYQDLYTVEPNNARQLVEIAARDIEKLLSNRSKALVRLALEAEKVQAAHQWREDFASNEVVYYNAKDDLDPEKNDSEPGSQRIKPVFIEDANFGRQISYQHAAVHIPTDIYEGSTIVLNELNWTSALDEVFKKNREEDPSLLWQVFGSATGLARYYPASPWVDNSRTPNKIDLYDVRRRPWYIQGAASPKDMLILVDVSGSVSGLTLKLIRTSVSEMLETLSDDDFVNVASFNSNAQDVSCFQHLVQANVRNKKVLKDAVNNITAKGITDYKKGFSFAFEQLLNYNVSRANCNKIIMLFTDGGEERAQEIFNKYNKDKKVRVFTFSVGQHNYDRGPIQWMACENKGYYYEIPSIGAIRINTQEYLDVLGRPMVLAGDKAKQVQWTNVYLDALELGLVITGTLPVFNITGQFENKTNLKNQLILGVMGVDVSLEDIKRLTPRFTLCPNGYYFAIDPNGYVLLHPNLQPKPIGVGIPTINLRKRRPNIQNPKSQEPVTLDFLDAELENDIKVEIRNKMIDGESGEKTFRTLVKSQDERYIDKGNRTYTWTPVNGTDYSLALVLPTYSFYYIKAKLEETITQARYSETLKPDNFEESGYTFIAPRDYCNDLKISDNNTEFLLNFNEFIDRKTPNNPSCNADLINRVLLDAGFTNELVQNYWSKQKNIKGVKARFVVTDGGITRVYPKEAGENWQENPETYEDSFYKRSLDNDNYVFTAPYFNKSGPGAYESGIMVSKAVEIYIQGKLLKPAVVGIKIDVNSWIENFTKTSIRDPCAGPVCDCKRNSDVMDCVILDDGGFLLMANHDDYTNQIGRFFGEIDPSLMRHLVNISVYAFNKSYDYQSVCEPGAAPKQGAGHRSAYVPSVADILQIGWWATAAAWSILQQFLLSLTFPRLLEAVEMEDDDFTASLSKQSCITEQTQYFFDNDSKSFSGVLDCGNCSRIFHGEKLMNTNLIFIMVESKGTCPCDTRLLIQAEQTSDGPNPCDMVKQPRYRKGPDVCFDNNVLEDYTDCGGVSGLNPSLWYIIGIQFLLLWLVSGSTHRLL
T1 sequence (P54284 whole entry partner): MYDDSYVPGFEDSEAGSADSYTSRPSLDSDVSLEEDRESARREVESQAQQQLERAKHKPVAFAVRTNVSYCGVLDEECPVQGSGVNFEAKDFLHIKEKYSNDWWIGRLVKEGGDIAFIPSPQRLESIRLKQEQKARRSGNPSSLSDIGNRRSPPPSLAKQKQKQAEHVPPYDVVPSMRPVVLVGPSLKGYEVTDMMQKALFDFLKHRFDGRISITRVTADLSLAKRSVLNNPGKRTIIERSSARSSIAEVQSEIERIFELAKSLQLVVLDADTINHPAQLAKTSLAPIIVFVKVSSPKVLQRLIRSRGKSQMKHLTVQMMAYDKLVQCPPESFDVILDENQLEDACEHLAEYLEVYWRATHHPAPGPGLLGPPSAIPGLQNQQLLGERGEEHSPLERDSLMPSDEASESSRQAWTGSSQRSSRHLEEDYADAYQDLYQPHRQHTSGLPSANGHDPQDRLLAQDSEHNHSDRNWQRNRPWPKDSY

Compound | inhibition at 10 µM [%] | inhibition at 30 µM [%] | IC50 [nM]
COc1c(C(C)(C)C)cc(CC(=O)NC2(C(=O)NCc3cccc(C(F)(F)F)c3)CCCCC2)cc1C(C)(C)C [Compound 15, 1-(2-(3,5-di-tert-butyl-4-methoxyphenyl)acetamido)-N-(3-(trifluoromethyl)benzyl)cyclohexanecarboxamide] | 48.2 | 65.9 | 
CC(C)(C#N)c1cc(C(=O)NC2(C(=O)NCc3cccc(C(F)(F)F)c3)CCCCC2)cc(C(C)(C)C#N)c1 [Compound 40, 3,5-bis(2-cyanopropan-2-yl)-N-(1-(3-(trifluoromethyl)benzylcarbamoyl)cyclohexyl)benzamide] | 80 | 77.6 | 367
CC(C)(C)c1cc(C(=O)NC2(C(=O)NCc3nccs3)CCCCC2)cc(C(C)(C)C)n1 [Compound 80, 2,6-di-tert-butyl-N-(1-(thiazol-2-ylmethylcarbamoyl)cyclohexyl)isonicotinamide] | 98.4 | 104 | 106
COc1ccc(CNC(=O)C2(NC(=O)c3cc(C(C)(C)C)c(OC)c(C(C)(C)C)c3)CCCC2)cc1 [Compound 38, 3,5-di-tert-butyl-4-methoxy-N-(1-(4-methoxybenzylcarbamoyl)cyclopentyl)benzamide] | 97.8 | 99 | 35.9
CC(C)(C)c1cc(C(=O)NC2(C(=O)N3CCCC3)CCCCC2)cc(C(C)(C)C)n1 [Compound 66, 2,6-di-tert-butyl-N-(1-(pyrrolidine-1-carbonyl)cyclohexyl)isonicotinamide] |  |  | 960
Cc1cnc(CNC(=O)C2(NC(=O)c3cc(C(C)(C)C)c(O)c(C(C)(C)C)c3)CCCCC2)cn1 [Compound 5, 3,5-di-tert-butyl-4-hydroxy-N-(1-((5-methylpyrazin-2-yl)methylcarbamoyl)cyclohexyl)benzamide] | 94.6 | 96.4 | 127
CC(C)(C)c1cc(CNC2(C(=O)NCc3ccccc3)CCCCC2)cc(C(C)(C)C)c1 [Compound 57, N-benzyl-1-(3,5-di-tert-butylbenzylamino)cyclohexanecarboxamide] | 99.8 | 101 | 868
CC(C)(C)c1cc(C(=O)NC2(C(=O)NCc3ccc(S(C)(=O)=O)cc3)CCCCC2)cc(C(C)(C)C)c1O [Compound 112, 3,5-di-tert-butyl-4-hydroxy-N-(1-(4-(methylsulfonyl)benzylcarbamoyl)cyclohexyl)benzamide] | 96.7 | 102 | 138
COc1ccc(CNC(=O)C2(NC(=O)c3cc(C(C)(C)C)c(OC)c(C(C)(C)C)c3)CCCCC2)cc1 [Compound 31, 3,5-di-tert-butyl-4-methoxy-N-(1-(4-methoxybenzylcarbamoyl)cyclohexyl)benzamide] | 87.5 | 105 | 2.6
CN(C)c1ccc(CNC(=O)C2(NC(=O)c3cc(C(C)(C)C)nc(C(C)(C)C)c3)CCCCC2)cc1 [Compound 77, 2,6-di-tert-butyl-N-(1-(4-(dimethylamino)benzylcarbamoyl)cyclohexyl)isonicotinamide] | 48.7 | 66.9 | 574
CC(C)(C)c1cc(C(=O)NC2(C(=O)NCc3ccncc3)CCCCC2)cc(C(C)(C)C)n1 [Compound 100, 2,6-di-tert-butyl-N-(1-(pyridin-4-ylmethylcarbamoyl)cyclohexyl)isonicotinamide] |  |  | 154
Cc1cnc(CNC(=O)C2(NC(=O)c3cc(C(C)(C)C)nc(C(C)(C)C)c3)CCCC2)cn1 [Compound 91, 2,6-di-tert-butyl-N-(1-((5-methylpyrazin-2-yl)methylcarbamoyl)cyclopentyl)isonicotinamide] | 95.3 | 96.1 | 148
COc1ccc(CNC(=O)C2(NC(=O)c3cc(C(C)(C)C)nc(C(C)(C)C)c3)CCOCC2)cc1 [Compound 113, 2,6-di-tert-butyl-N-(4-(4-methoxybenzylcarbamoyl)tetrahydro-2H-pyran-4-yl)isonicotinamide] | 79 | 93 | 59.4
Cc1cc(CNC(=O)C2(NC(=O)c3cc(C(C)(C)C)c(O)c(C(C)(C)C)c3)CC2)nn1C [Compound 2, 3,5-di-tert-butyl-N-(1-((1,5-dimethyl-1H-pyrazol-3-yl)methylcarbamoyl)cyclopropyl)-4-hydroxybenzamide] | 99 | 104 | 1410
CC(C)(C)c1cc(C(=O)NC2(C(=O)NCc3ccccc3)CCCCC2)cc(C(C)(C)C#N)c1 [Compound 70, N-(1-(benzylcarbamoyl)cyclohexyl)-3-tert-butyl-5-(2-cyanopropan-2-yl)benzamide] | 89.8 | 96.3 | 27.4
CC(C)(C)c1cc(C(=O)NC2(C(=O)O)CCCCC2)cc(C(C)(C)C)c1 [Compound 34, 1-(3,5-di-tert-butylbenzamido)cyclohexanecarboxylic acid] | 68.2 | 82.3 | 
COc1c(C(C)(C)C)cc(C(=O)NC2(C(=O)NCc3cnc(C)cn3)CCN(C(=O)OC(C)(C)C)CC2)cc1C(C)(C)C [Compound 22, tert-butyl 4-(3,5-di-tert-butyl-4-methoxybenzamido)-4-((5-methylpyrazin-2-yl)methylcarbamoyl)piperidine-1-carboxylate] | 95.1 |  | 402
CNC(=O)C1(NC(=O)c2cc(C(C)(C)C)c(OC)c(C(C)(C)C)c2)CCCCC1 [Compound 28, 3,5-di-tert-butyl-4-methoxy-N-(1-(methylcarbamoyl)cyclohexyl)benzamide] | 82.6 | 89.4 | 69.3
CC(C)(C)c1cc(C(=O)NC2(C(=O)NCc3cccc(S(C)(=O)=O)c3)CC2)cc(C(C)(C)C)c1O [Compound 16, 3,5-di-tert-butyl-4-hydroxy-N-(1-(3-(methylsulfonyl)benzylcarbamoyl)cyclopropyl)benzamide] | 89.3 | 93 | 
CN(C)c1ccc(CNC(=O)C2(NC(=O)c3cc(C(C)(C)C)cc(C(C)(C)C)c3)CCCCC2)cc1 [Compound 48, 3,5-di-tert-butyl-N-(1-(4-(dimethylamino)benzylcarbamoyl)cyclohexyl)benzamide] | 88.7 | 90.3 | 371
CC(C)(C)c1cc(C(=O)NC2(C(=O)Nc3ccncc3)CCCCC2)cc(C(C)(C)C)c1 [Compound 75, 3,5-di-tert-butyl-N-(1-(pyridin-4-ylcarbamoyl)cyclohexyl)benzamide] | 93.6 | 101 | 545
Cc1cc(CNC(=O)C2(NC(=O)c3cc(C(C)(C)C)c(O)c(C(C)(C)C)c3)CCCCC2)no1 [Compound 12, 3,5-di-tert-butyl-4-hydroxy-N-(1-((5-methylisoxazol-3-yl)methylcarbamoyl)cyclohexyl)benzamide] | 98.6 | 101 | 55
CC(C)(C)c1cc(C(=O)NC2(C(=O)NCCCN3CCOCC3)CCCCC2)cc(C(C)(C)C)n1 [Compound 99, 2,6-di-tert-butyl-N-(1-(3-morpholinopropylcarbamoyl)cyclohexyl)isonicotinamide] |  |  | 700
Cc1cnc(CNC(=O)C2(NC(=O)c3cc(C(C)(C)C)c(O)c(C(C)(C)C)c3)CC2)cn1 [Compound 3, 3,5-di-tert-butyl-4-hydroxy-N-(1-((5-methylpyrazin-2-yl)methylcarbamoyl)cyclopropyl)benzamide] | 89.8 | 98.8 | 1620
CC(C)(C#N)c1cc(C(=O)NC2(C(=O)NCc3cccc(C(F)(F)F)c3)CCCCC2)ccn1 [Compound 119, 2-(2-cyanopropan-2-yl)-N-(1-(3-(trifluoromethyl)benzylcarbamoyl)cyclohexyl)isonicotinamide] | 63.1 |  | 
Cc1cc(CNC(=O)C2(NC(=O)c3cc(C4CC4)cc(C4CC4)c3)CCCCC2)nn1C [Compound 6, 3,5-dicyclopropyl-N-(1-((1,5-dimethyl-1H-pyrazol-3-yl)methylcarbamoyl)cyclohexyl)benzamide] | 54.7 | 66 | 
CC(C)(C)c1cc(C(=O)NC2(C(=O)NCc3cccc(C(F)(F)F)c3)CCCC2)cc(C(C)(C)C)c1 [Compound 39, 3,5-di-tert-butyl-N-(1-(3-(trifluoromethyl)benzylcarbamoyl)cyclopentyl)benzamide] | 79.6 | 77.9 | 513
